According to patent publication US20040014671A1, “Preventives or remedies for heart failure” (priority 2000, published 2004):
Where a SMILES comes first, the peptide text is derived from it. [ ]: non-standard residue; d: D form. dTrp(2-Me) = Cc1[nH]c2ccccc2c1C[C@@H](N)C(=O)O; d2Nal = N[C@H](Cc1ccc2ccccc2c1)C(=O)O

Assays:
[1] = test system: papillary muscle of guinea-pig; test: Myocardial contractility (developed tension) in isolated papillary muscle of guinea-pig; settings: for tension development (positive inotropic action) vs baseline: applied cumulatively 10, 30 and 100 μM, n=5, FIG. 1; for change in developed tension: isolated papillary muscle, 1 Hz stimulation
Description: The direct effect of pralmorelin on myocardial contractility was evaluated using the isolated cardiac muscle of guinea-pigs according to the standard method for evaluating myocardial contractility.
Male Hartley guinea-pigs (body weight, 301-350 g; Japan SLC) were purchased. The animals were accommodated to an environment at a temperature of 23±2° C. and a humidity of 55±15% under 12-hr light/dark cycles while they were allowed to eat and drink water ad libitum until they weighed 360-480 g. Each test substance was tested on a group of five animals.
The test substances were pralmorelin dihydrochloride (KP-102), representatives of growth hormone secretagogues such as hexarelin, ghrelin and ibutamorelin methanesulfonate (the last being hereunder referred to as MK-0677) (which were prepared by the method described in JP 6-263737 A (kokai)), as well as a recombinant human growth hormone (Sumitomo Pharmaceutical) and amrinone (Sigma) which is a known therapeutic of acute heart failure. KP-102, hexarelin and MK-0677 were dissolved in distilled water. Ghrelin was dissolved in physiological saline. Amrinone was first dissolved in dimethyl sulfoxide and then diluted with physiological saline. The growth hormone was dissolved in a dedicated solubilizer (0.3 w/v % metacresol and 3.9 w/v % D-mannitol). None of the test substance solutions should be added in an amount exceeding 1 w/v %. All reagents other than the test substances were guaranteed products of Nacalai Tesque.
The guinea-pigs were stunned with a blow to the back of their head; thereafter, the carotid artery was incised and the animals were exsanguinated to death. The chest was opened, the blood vessels in the upper part of the heart were cut and the heart was removed. The heart was immediately transferred into a Krebs-Henseleit (K-H) nutrient solution (NaCl, 118.0 mM; KCl, 4.7 mM; CaCl2. 2H2O, 1.0 mM; KH2PO4, 1.2 mM; MgSO4.7H2O, 1.2 mM; NaHCO3, 25.0 mM; glucose, 11.0 mM) that had been fully aerated with 95% O2-5% CO2. The heart was fixed on a rubber-lined Petri dish with needles such that its front face was seen. The ventricular wall of the upper right ventricle (toward the atrium) was excised transversely along the atrium, then excised longitudinally along the interventricular septum so that the ventricular wall was opened to expose the right ventricular papillary muscle. Subsequently, the entire surface of the left ventricle was cut open from the aorta (down) to the apex and the anterior wall of the left ventricle was opened wide, to both right and left, and fixed to expose the papillary muscle of the left ventricle. The tricupsid or mitral valve was cut off from the ventricle and the papillary muscle was cut off at the base to prepare a specimen of papillary muscle. The base of the specimen was fixed to field stimulating electrodes in an organ bath filled with 15 mL of the nutrient solution. The tendinous cord adhering to the valve was tied up with a thread and connected to an FD pickup (TB-612T, Nihon Kohden). A resting tension of 0.5 g was loaded and the papillary muscle was driven with an electric stimulator (SEN-3201, Nihon Kohden) at a frequency of 1 Hz by pulses of 20-ms duration and at a voltage intensity about 1.2 times the threshold. After an equilibration period of about 1 hr, KP-102, hexarelin and amrinone were each applied cumulatively up to amounts of 10, 30 and 100 μM. After examination of the changes in inotropic action due to the application of the test substances, 12.5 mM of CaCl2 was added and the maximum tension that was developed by each specimen was obtained. The developed tension was recorded with a multi-purpose preamplifier (RMP-6008, Nihon Kohden) and a recorder (WT-647G, Nihon Kohden).
Each result was expressed by mean ± standard error. […]

[2] = test system: anesthetized open-chest rabbits; test: Cardiac function of anesthetized open-chest rabbit after intravenous administration; format: in vivo
Description: The effects of pralmorelin on cardiac function were evaluated by measuring various parameters [blood pressure, heart rate, systolic left ventricular pressure (LVPsys), and maximal positive dP/dt (+dP/dtmax) obtained by differentiating the waveform of left ventricular pressure (LVP)]. The value of the maximal positive dP/dt for the left ventricular pressure (+dP/dtmax) is particularly important to determine if the cardiotonic action is sufficient to treat acute heart failure.
Pralmorelin dihydrochloride (hereunder referred to as KP-102) (prepared by the method described in WO 9304081) was dissolved in distilled water for injection to prepare a 1.5 mg/mL solution.
Male NZW-strain rabbits (Kitayama Labes) weighing about 2 kg were used in the experiment. After arrival, the animals were allowed to eat a solid meal (Labo R Stock, Oriental Yeast Co., Ltd.) and drink water in a room at a temperature of 20±2° C. and at a humidity of 55±15% under 12-hr light/ dark cycles (from 7:00 to 19:00); the animals were kept under these conditions for at least 6 days before use.
Rabbits were anesthetized by administering 30 mg/kg of sodium pentobarbital into the auricular vein at a slow speed with attention to their breathing. The animals were then fixed in supine position and an endotracheal cannula was inserted. Under artificial respiration (tidal volume, 25 mL/breath; ventilation frequency, 45 breaths/min: SN-480-7 of Shinano Seisakusyo), the chest of each animal was opened by midline incision and the pericardium was incised to expose the heart. The left ventricular pressure (LVP) was measured with a pressure transducer (TP-300T, Nihon Kohden) and a pressure amplifier (AG-610G, Nihon Kohden) as a cannula with syringe was inserted from the cardiac apex into the left ventricle. The waveform of LVP was differentiated with a differentiator unit (ED-601, Nihon Kohden) to determine the maximal positive dP/dt(+dP/dtmax), which was used as an index for cardiac contractility. Blood pressure was measured with a pressure amplifier (AP-610G, Nihon Kohden) via a pressure transducer (TP-300T, Nihon Kohden) connected to a cannula inserted into the left femoral artery. Heart rate was measured with a cardiotachometer (AT-601G, Nihon Kohden) that was driven by counting the pulse waves of LVP. The parameters mentioned above were recorded on a recorder (TA-11, Gould). A cannula was inserted into the left femoral vein so as to assist in the administration of the test substance. The rectum temperature of each animal was controlled at 39° C. with a body temperature controller (TK-43, Asahi Denshi). The anesthetic was added as required but additional anesthetization should be avoided during the measurements.
After each parameter stabilized, distilled water (0.2 mL/kg) was administered over one minute with an infusion pump (FP-W-100, Toyo Sangyo K.K.) and observations were made for 5 minutes after the administration to see whether the vehicle would have no effect. About 5 minutes after the administration of distilled water, the test substance was administered with an infusion pump in a volume of 0.2 mL/kg over one minute according to the grouping method specified above. Each hemodynamic parameter was measured both before administration and 1, 3, 5, 10, 15, 20 and 25 minutes after administration and the percent changes from the basal values were calculated. In some animals, measurement was conducted until 40 minutes after the administration of the test substance.
The results were each expressed by mean ± standard deviation. Any difference between groups was tested by repeated measures ANOVA (analysis of variance); The significance level was set at 5%.

[3] = test system: dogs with occluded anterior descending coronary artery; test: Cardiac function of dog with anterior descending coronary artery occlusion after intravenous administration; format: in vivo; settings: 100 μg/kg intravenously after occlusion
Description: Using a dog model of acute contractile dysfunction caused by occlusion of the anterior descending coronary artery, the inventors studied the cardiotonic action of pralmorelin.
The action of pralmorelin on the cardiac dysfunction deteriorated by occlusion of the coronary artery was evaluated by various hemodynamic parameters, cardiac output (CO), stroke volume (SV), maximal positive dP/dt of left ventricular pressure (+dP/dtmax), ejection fraction (EF), mean blood pressure (MBP), heart rate (HR), total peripheral resistance (TPR) and double product (RPP) as an index of myocardial oxygen consumption.
Pralmorelin dihydrochloride (hereunder referred to as KP-102) (prepared by the method described in WO 9304081) was dissolved in distilled water to prepare a 0.5 mg/mL solution.
In the experiment, adult beagles of either sex (weighing 9-11 kg) purchased from Nihon Nosan Kogyo K.K. (Kanagawa, Japan) were used. After arrival, the animals were allowed to eat a solid meal (CD-5, CLEA Japan, Inc. or Labo D Stock, Nark Corp.) and drink water in a room at a temperature of 20±2° C. and at a humidity of 55±15% under illumination for 12 hours a day (from 7:00 to 19:00); the animals were kept under these conditions for at least one week before use.
Anesthesia was introduced by intravenous administration of pentobarbital (30 mg/kg) and in order to maintain anesthesia, pentobarbital (5-6 mg/kg/hr) was injected continuously by means of an infusion pump (FP-W-100, Toyo Sangyo) through a polyethylene cannula retained in the right cephalic vein. The endotracheal cannula was inserted and the chest was opened at the left fourth intercostal space under artificial respiration in a tidal volume of 20 mL/kg at a rate of 18 breaths/min with an artificial respirator (SN-480-3 of Shinano Seisakusho). The left anterior descending coronary artery was carefully detached from the site of origin over a length of 1-2 cm and an occluding thread was passed through.
The chest was opened at the left fifth intercostal space and a 5-segment conductance catheter (CCS-108-DA, Unique Medical) was inserted from the cardiac apex so that all electrodes would be placed in the left ventricle. A catheter equipped with a 5 Fr microtip pressure transducer (pressure transducer catheter, Model MPC-500, MILLAR) was inserted into the left ventricle through the left carotid artery. The conductance catheter and the pressure transducer catheter inserted into the left ventricle were connected to a built-in amplifier in a ventricular volume-measuring instrument (Integral 3; VPR-1002, Unique Medical) and the changes in the left ventricular pressure (LVP) and the volume of the left ventricle were measured simultaneously. To determine the mean blood pressure (MBP), blood pressure was measured via a blood pressure amplifier (AP641G, Nihon Kohden) from the 5 Fr pressure transducer catheter inserted into the left femoral artery. Heart rate (HR) was measured with a cardiotachometer (AT-601G, Nihon Kohden) from the pulse waves of blood pressure.
The chest was opened again at the fourth intercostal space and in order to measure the cardiac output (CO(EMF)) (CO as determined by an electromagnetic blood flowmeter based method), a probe connected to an electromagnetic blood flowmeter (MFV-2100, Nihon Kohden) was fitted at the site of origin of the aorta. A spiral electrode was put in the ischemic region that occurred due to the occlusion of coronary artery and a surface electrocardiogram was recorded. A Doppler probe was fitted on the left anterior descending coronary artery and the blood flow was determined with a Doppler blood flowmeter (PD-20, Crystal Biotech). The anterior descending coronary artery was occluded with pulling up the occluding thread over a period of about 5 minutes. Complete occlusion of the blood vessel was confirmed by the change in the surface electrocardiogram and the disappearance of the Doppler sound. […]

[4] = 300 μg/kg intravenously over one minute, n=4

C[C@H](NC(=O)[C@@H](Cc1ccc2ccccc2c1)NC(=O)[C@@H](C)N)C(=O)N[C@@H](Cc1c[nH]c2ccccc12)C(=O)N[C@H](Cc1ccccc1)C(=O)N[C@@H](CCCCN)C(N)=O [KP-102, D-alanyl-3-(naphthalen-2-yl)-D-alanyl-L-alanyl-L-tryptophyl-D-phenylalanyl-L-lysinamide] (H-[dA][d2Nal]AW[dF]K-NH2) was tested, and the “tension development (positive inotropic action) vs baseline” value (“tension development … vs baseline” below) [1] was “significant effect over the baseline value”, the “onset of cardiotonic action (LVPsys, +dP/dtmax) after administration” value ([2]; 300 μg/kg intravenously) was “beginning one minute after the administration” and the “overall effect on heart rate” value ([2]; 300 μg/kg intravenously) was “little affected”. For the same molecule, the “time of peak of cardiotonic action after administration” value ([2]; 300 μg/kg intravenously) was 5 to 10 min, the “time until blood pressure baseline value practically restored” value ([2]; 300 μg/kg intravenously) was ~25 min and the “maximum increase in +dP/dtmax, of the baseline value” [2, 4] was 22%. For the same molecule, the “maximum increase in LVPsys, of the baseline value” [2, 4] was 13%, the “heart rate drop from baseline” value ([2]; 300 μg/kg intravenously, 3 minutes after administration) was 2% and the “heart rate increase from baseline” value ([2]; 300 μg/kg intravenously, 15 minutes after administration) was 1%. The “heart rate increase from baseline” value ([2]; 300 μg/kg intravenously, 25 minutes after administration) was 2%, the “time until baseline values (LVPsys, +dP/dtmax) restored” value ([2]; 300 μg/kg intravenously, one case with extended monitoring) was ≤ 40 min and the “mean blood pressure change vs control group” value ([2]; 300 μg/kg intravenously, p<0.05) was “significant rise of blood pressure”. The “change in LVEDP” value [3] was “Neither of the control and KP-102 groups showed changes”, the “change in LVPsys” value [3] was “Neither of the control and KP-102 groups showed changes” and the “change in double product (RPP), index of myocardial oxygen consumption” value [3] was “Neither group experienced a change in RPP”. For the same molecule, the “change in heart rate (HR)” value [3] was “Neither of MBP and HR changed”, the “change in mean blood pressure (MBP)” value [3] was “Neither of MBP and HR changed” and the “change in −dP/dtmax vs control group” value [3] was “no significant change”. The “increase in stroke volume (SV) from baseline before administration” value ([3]; 5 minutes after administration) was 5%, the “maximal increase in ejection fraction (EF)” value ([3]; 10 minutes) was 10% and the “increase in +dP/dtmax from baseline before administration” value ([3]; 10 minutes after administration) was 7%. For the same molecule, the “maximum increase in cardiac output (CO) from baseline before administration” value ([3]; 10 minutes after administration, n=5) was 7% and the “change in total peripheral resistance (TPR)” value ([3]; significant vs control) was “TPR dropped following the administration”.
With CC(C)(N)C(=O)N[C@H](COCc1ccccc1)C(=O)N1CCC2(CC1)CN(S(C)(=O)=O)c1ccccc12 [MK-0677, ibutamorelin methanesulfonate] the “change in developed tension” value ([1]; 100 μM) was “no changes in the developed tension”.
Nc1cc(-c2ccncc2)c[nH]c1=O [amrinone] was tested, and the “tension development … vs baseline” value [1] was “increased in a concentration-dependent manner”.
Cc1[nH]c2ccccc2c1C[C@@H](NC(=O)[C@@H](N)Cc1cnc[nH]1)C(=O)N[C@@H](C)C(=O)N[C@@H](Cc1c[nH]c2ccccc12)C(=O)N[C@H](Cc1ccccc1)C(=O)N[C@@H](CCCCN)C(N)=O [hexarelin] (H-H[dTrp(2-Me)]AW[dF]K-NH2) was tested, and the “tension development … vs baseline” value [1] was “very weak and by no means significant over the baseline value”.
In the case of ghrelin, the “change in developed tension” value ([1]; 1 μM) is reported as “no changes in the developed tension”.
In the case of “recombinant human growth hormone: recombinant human growth hormone (Sumitomo Pharmaceutical)”, the “change in developed tension” value ([1]; 0.2 IU/mL) is reported as “no changes in the developed tension”.
